Laboratory results published in patent publication US20110288011A1, “PEPTIDE THERAPEUTIC CONJUGATES AND USES THEREOF” (priority 2008, published 2011).
“Also recorded” adds a separate entry of the source. Square brackets hold non-standard residues; d marks the D form. Ends that are not written are not given here. Peptide text beside a SMILES is read from it. pGlu = O=C1CC[C@@H](C(=O)O)N1

Columns and labels:
NTSR1 = NTSR1 (Homo sapiens, UniProt P30989); test: biochemical
rats = test: Body temperature (sustained hypothermia) in rats; assay type: in vivo
Method: A similar experiment was performed in rats.
A similar experiment was conducted in rats.
A further experiment, conducted over a 12-hour period, was also performed in rats.

mice brains = test: In situ brain perfusion of iodinated NT and NT-An2; assay type: in vivo
Text: Following iodination, mice brains were perfused in the carotid artery with either [^125I]-NT or the [^125I]-NT-An2 derivative in Krebs buffer for the indicated times. After the indicated times, brains were further perfused for 30 sec to washout the excess of both compound. Both [^125I]-NT or [^125I]-NT-An2 derivative in brain were quantified using a […]. Results are expressed in terms of brain volume of distribution (ml/100 g) as a function of time.
Brain capillary depletion was performed using Dextran following standard procedures. Both [^125I]-NT or [^125I]-NT-An2 derivative present in brain, capillaries, and parenchyma were quantified and volume of distribution (ml/100 g/2 min) is reported.
To confirm that the NT-An2 conjugate crosses the BBB, both NT and the conjugate were iodinated using standard procedures, and in situ brain perfusion was performed using methods standard in the art. The initial transport was measured as a function of time (FIG. 42). […] Higher levels of NT-An2 were found in the brain parenchyma when compared to NT.

mice [1] = test: Body temperature (hypothermia induction) in mice; assay type: in vivo; details: for Δ Max temp: mouse, in vivo
Method: We also tested whether higher doses of the conjugate would results in greater induction of hypothermia.
At this time, the infusion was increased to 40 mg/kg/hr.

mice [2] = test: Hot plate test (analgesia) in mice; details: 15 minutes following injection, NT-An2 20 mg/kg, buprenorphine 1 mg/kg
DIO mice = test: Glycemia in DIO mice after bolus injection; assay type: in vivo, mouse; details: vs control
Method: We also tested the ability of the exendin-4-Angiopep-2 dimer conjugate to reduce glycemia in DIO mice. Mice were injected with a bolus containing a control, exendin-4, or the exendin-4-Angiopep-2 dimer conjugate.

mouse brain = details: in vivo
Method: To measure brain uptake of the exendin-4/Angiopep-2 conjugates, we used an in situ perfusion assay. […] Briefly, the right common carotid artery of mice anesthetized with ketamine/xylazine (140/8 mg/kg i.p.) was exposed and ligated at the level of the bifurcation of the common carotid, rostral to the occipital artery. The common carotid was then catheterized rostrally with polyethylene tubing filled with heparin (25 U/ml) and mounted on a 26-gauge needle. […] Prior to the perfusion, the contralateral blood flow contribution was eliminated by severing the heart ventricles. […] Mice were then decapitated to terminate perfusion and the right hemisphere was isolated on ice before being subjected to capillary depletion. Aliquots of homogenates, supernatants, pellets, and perfusates were taken to measure their contents and to evaluate the apparent volume of distribution.

ob/ob mice = test: Treatment of obese (ob/ob) mice with Exen-An2: body weight, food intake, glycemia; assay type: in vivo, mouse; details: higher doses (exendin-4 30 μg/kg, Exen-An2 48 μg/kg), vs control
Method: The body weight of each mouse was measured daily. Food intake was estimated based on the mean values for each group, and glycemia was measured one hour following treatment.

blood-brain barrier = details: mouse, in vivo

Chain of NTSR1 (P30989 whole entry): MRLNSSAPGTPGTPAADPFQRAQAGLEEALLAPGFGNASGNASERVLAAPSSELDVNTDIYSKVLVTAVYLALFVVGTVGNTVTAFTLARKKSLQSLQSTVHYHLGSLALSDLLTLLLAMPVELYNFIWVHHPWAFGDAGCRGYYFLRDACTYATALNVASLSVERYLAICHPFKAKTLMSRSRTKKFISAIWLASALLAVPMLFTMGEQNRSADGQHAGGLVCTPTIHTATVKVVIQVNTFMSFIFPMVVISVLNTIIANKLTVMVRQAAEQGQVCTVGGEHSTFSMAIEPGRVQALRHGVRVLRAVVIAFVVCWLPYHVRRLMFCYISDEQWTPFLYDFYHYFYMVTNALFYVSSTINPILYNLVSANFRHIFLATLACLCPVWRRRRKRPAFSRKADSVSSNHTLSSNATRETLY

`CC[C@H](C)[C@H](NC(=O)[C@@H](Cc1ccc(O)cc1)NC(=O)[C@@H]1CCCN1C(=O)[C@H](CCCNC(=N)N)NC(=O)[C@H](CCCNC(=N)N)NC(=O)[C@H](CCCCN)NC(C)=O)C(=O)N[C@@H](CC(C)C)C(=O)O` [AcLysNT(8-13)D-tyr11, Ac-KRRPD-YIL-OH] (Ac-KRRP[dY]IL-OH) gave an IC50 (NTSR1) of 5390 nM.
Work on `CC[C@H](C)[C@H](NC(=O)[C@H](Cc1ccc(O)cc1)NC(=O)[C@@H]1CCCN1C(=O)[C@H](CCCNC(=N)N)NC(=O)[C@H](CCCNC(=N)N)NC(=O)[C@H](CCCCN)NC(=O)[C@@H]1CCC(=O)N1)C(=O)N[C@@H](CC(C)C)C(=O)O` [pGlu-Lys-NT(8-13)] ([pGlu]KRRPYIL-OH; C-terminus assumed) yielded an IC50 (NTSR1) of 1.3 nM.
“NT-An2: Neurotensin Angiopep-2-Cys amide conjugate via EMCS/MHA linker; different production batches” was tested, and the body temperature (rats; 40 mg/kg i.v. bolus followed by infusion, 12-hour period, 40 mg/kg) was “sustained reduction in body temperature; also recorded: prolonged reduction of body temperature”, the body temperature (rats; i.v. 20 mg/kg then 20 mg/kg/hr infusion, 360-minute time course) was “sustained reduction in body temperature” and the maximal temperature drop (rats; i.v. bolus 20 mg/kg then 20 mg/kg/hr for […], after 90 minutes) was “about 3.5 °C”. For the same compound, the “trapping in the brain capillaries” value (mice brains; 2 min in situ perfusion, capillary depletion) was “not trapped in the brain capillaries”, the “levels in the brain parenchyma” value (mice brains; 2 min in situ perfusion, capillary depletion, compared to NT) was “Higher levels” and the initial brain uptake (mice brains; in situ brain perfusion, as a function of time, iodinated compounds) was “higher than for the unconjugated NT”. For the same compound, the “reduction in body temperature” value (mice [1]; mice, 5, 15, or 20 mg/kg, monitored for 120 minutes) was “Small differences between these higher doses”, the body temperature (mice [1]; mice, i.v. bolus 20 mg/kg then 20 mg/kg/hr for 2.5 hours, then 40 mg/kg/hr, 360 minute time course) was “reduction in body temperature” and the “effect on body temperature” value (mice [1]; mice, i.v. bolus, monitored 120 minutes, conjugates compared with control) was “greatest reduction in body temperature; also recorded: larger effect”. For the same compound, the body temperature (mice [1]; mice, intravenous, NT 1 mg/kg or equivalent dose of conjugate (2.5 mg/kg)) was “rapid decrease in the body temperature”, the body temperature (mice [1]; mice, intravenous, NT-An2 5 mg/kg) was “stronger decrease in body temperature” and the “Δ Max temp” value (mice [1]; listed as ANG-NT (prep #1)) was −4 to −5 °C. The “Δ Max temp” value (mice [1]; listed as ANG-NT (prep #2)) was −4 to −5 °C, the “Δ Max temp” value (mice [1]; listed as ANG-NT (prep #3)) was −3 to −4 °C and the “Δ Max temp” value (mice [1]; listed as ANG-NT (prep #4)) was −2 to −4 °C. The “latency of foot licking behavior (hot plate)” value (mice [2]) was “increased the latency of foot licking behavior in a statistically significant manner”.
For exendin-4, the glycemia (DIO mice) was “reduced glycemia”, the brain distribution (mouse brain) was 0.2 ml/100 g/2 min and the body weight gain (ob/ob mice; after 10 days of daily treatment) was “lower than the control; also recorded: reduce weight gain”. For the same compound, the food intake (ob/ob mice) was “reduced; also recorded: reduce food intake”.
For “leptin(116-130) (SCHLPWASGLETLDS-NH2; UniProt P41159 116-130, looked up, fragment) [leptin116-130]”, the “transport across the BBB” value (blood-brain barrier) was “reduced as compared to in lean mice”.
